The source of these data is US20090176891A1, “DENTAL COMPOSITION AND METHOD OF USE” (priority 2007, published 2009).

Structures are written as SMILES. Where two headings read alike, the source gives them in different places.

One data set deals with RAT. The settings on record: cited from earlier work.
Data set [1] relates to common bacteria associated with failed root canal therapy. The data set can be described thus: Drug efficacy: zones of inhibition on agar plates. The class given is cell-based. As for the experimental part:
FIG. 6 is graph showing the antimicrobial efficacy of various dose strengths of CHX on bacterial growth on agar plates. The efficacy of the eluted amounts of CHX was tested to evaluate anti-microbial activity at various dose strengths compared to a positive control (Ampicillin). This pilot study was done to obtain a range of CHX elution amounts by weight required to kill common bacteria associated with failed root canal therapy.

For data set [2] the following is noted: species not given; cited from earlier work.

For the compound `CCOC(=O)c1ccc(N(C)C)cc1` [I3, Ethyl-4-N,N-dimethylaminobenzoate], the LD50 in the data set on RAT (RAT) is 2000 mg/kg.

Turning to `CC1(C)S[C@@H]2[C@H](NC(=O)[C@H](N)c3ccccc3)C(=O)N2[C@H]1C(=O)O` [Ampicillin], in data set [1] (10 mg, positive control), the zone of inhibition at 10000 µg/disc came out at 14.5 mm.

In the case of `C=C(C)C(=O)OCCO` [M5, hydroxyl ethyl methacrylate], the 50% lethal dose (LD50) in data set [2] was 4680 mg/kg.

With `[H]/N=C(\N/C(=N/[H])NCCCCCCNC(=N)NC(=N)Nc1ccc(Cl)cc1)Nc1ccc(Cl)cc1` [CHX, chlorohexidine], in data set [2], the LD50 was 2000 mg/kg. In addition, the antimicrobial effect entry in data set [1] (4 μg, compared with water (negative control)) is reported as “some antimicrobial effect can be seen”. In data set [1] (31 to 250 μg), the “zones of inhibition compared with Ampicillin” value is reported as “equal to or better than that of Ampicillin”. Further, the zone of inhibition at 0.5 µg/disc in data set [1] (dose 0.5 μg) is 0 mm. Moreover, the zone of inhibition at 1 µg/disc in data set [1] (dose 1 μg) is 0 mm. For the same compound, the zone of inhibition at 2 µg/disc in data set [1] (dose 2 μg) was found to be 0 mm. Moreover, in data set [1] (dose 4 μg), the zone of inhibition at 4 µg/disc came out at 7 mm. Besides, in data set [1] (dose 7.8 μg), the zone of inhibition at 7.8 µg/disc is 9 mm. The same compound showed a zone of inhibition at 15.6 µg/disc in data set [1] (dose 15.6 μg) of 12.3 mm. The zone of inhibition at 31.25 µg/disc in data set [1] (dose 31.25 μg) was 14.3 mm. This compound gave a zone of inhibition at 62.5 µg/disc in data set [1] (dose 62.5 μg) of 16.7 mm. Also, the zone of inhibition at 125 µg/disc in data set [1] (dose 125 μg) was 16.3 mm. The zone of inhibition at 250 µg/disc in data set [1] (dose 250 μg) turned out to be 17.3 mm.

For the compound `[Cl-].c1ccc([I+]c2ccccc2)cc1` [I5, Diphenyliodonium chloride], the LD50 in data set [2] is on record as 60 mg/kg.

On to `C=C(C)C(=O)OCCOCCOCCOC(=O)C(=C)C` [M4, triethylene glycol dimethacrylate], for which the LD50 in data set [2] was 10750 mg/kg.

For `C=C(C)C(=O)OCC(O)COc1ccc(C(C)(C)c2ccc(OCC(O)COC(=O)C(=C)C)cc2)cc1` (centres unmarked) [M3, 2,2-bis[p-(2-hydroxy-3-methacryloxypropoxy)phenyl]propane], the LD50 in the data set on RAT (RAT) is more than 5000 mg/kg.

As for `C=C(C)C(=O)OCCN(C)C` [I4, N,N-Dimethylaminoethyl Methacrylate], the LD50 in the data set on RAT (RAT ORAL) was 1751 mg/kg.
